The values below come from PubChem BioAssay AID296 (DTP/NCI, 2004).

Values joined by “and” are separate entries in the source; they are usually repeats but may differ in a detail not shown here. Equal entries are not always repeated. Results filed as inconclusive are left out.

The test system of this test is MX-1 breast xenograft, nude mice, tumor weight T/C. The test is described as follows: NCI In Vivo Anticancer Drug Screen. Data for tumor model Human Mammary Carcinoma MX-1 Xenograft (intrarenal inoculation) in NU/NU Swiss (nude) mice. The note with it: endpoint: mean tumor weight change, higher = larger tumour. Put shortly:
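Antitumour effect measured in vivo against vehicle controls, expressed as T/C.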

[1] abbreviates: dose: 25.0 mg/kg/injection, schedule: Q01DX010 (sc), vehicle: Klucel (hydroxypropylcellulose) (HPC).
The mark [2] stands for this setting: dose: 50.0 mg/kg/injection, schedule: Q01DX010 (sc), vehicle: Klucel (hydroxypropylcellulose) (HPC).
The mark [3] stands for this setting: dose: 300.0 mg/kg/injection, schedule: Q04DX003 (sc), vehicle: Klucel (hydroxypropylcellulose) (HPC).
[4] abbreviates: dose: 600.0 mg/kg/injection, schedule: Q04DX003 (sc), vehicle: Klucel (hydroxypropylcellulose) (HPC).
Where [5] appears, read: dose: 1200.0 mg/kg/injection, schedule: Q04DX003 (sc), vehicle: Klucel (hydroxypropylcellulose) (HPC).
[6] abbreviates: dose: 300.0 mg/kg/injection, schedule: Q04DX003 (sc), vehicle: suspension in saline.
The mark [7] stands for this setting: dose: 600.0 mg/kg/injection, schedule: Q04DX003 (sc), vehicle: suspension in saline.
Setting [8] is: dose: 2400.0 mg/kg/injection, schedule: Q04DX003 (sc), vehicle: suspension in saline.

With `C=C1C(=O)O[C@@H]2[C@H](O)[C@@H](C)[C@@H]3C=CC(=O)[C@@]3(C)[C@H](OC(=O)C=C(C)C)[C@H]12`, the T/C was 65 % of control (dose: 9.38 mg/kg/injection, schedule: Q04DX003 (sc), vehicle: saline with Tween-80); 105 % of control (dose: 18.75 mg/kg/injection, schedule: Q04DX003 (sc), vehicle: saline with Tween-80); 84 % of control (dose: 37.5 mg/kg/injection, schedule: Q04DX003 (sc), vehicle: saline with Tween-80).
Take `CN=C(N)N/N=C(\C)c1ccc2c(c1)Cc1ccccc1-2`: the T/C reads like this: (dose: 150.0 mg/kg/injection, schedule: Q04DX003 (sc), vehicle: saline with Tween-80) 105 % of control; (dose: 300.0 mg/kg/injection, schedule: Q04DX003 (sc), vehicle: saline with Tween-80) 115 % of control; (dose: 600.0 mg/kg/injection, schedule: Q04DX003 (sc), vehicle: saline with Tween-80) 105 % of control; (dose: 1200.0 mg/kg/injection, schedule: Q04DX003 (sc), vehicle: saline with Tween-80) 191 % of control.
For `CC/C(=C(\c1ccccc1)c1ccc(OCCN(C)C)cc1)c1ccccc1`, the T/C was 171 % of control under setting [1]; 178 % of control under setting [2]; 83 % of control (dose: 100.0 mg/kg/injection, schedule: Q01DX010 (sc), vehicle: Klucel (hydroxypropylcellulose) (HPC)); 61 % of control (dose: 100.0 mg/kg/injection, schedule: Q04DX003 (sc), vehicle: suspension in saline); 240 % of control (dose: 200.0 mg/kg/injection, schedule: Q01DX010 (sc), vehicle: Klucel (hydroxypropylcellulose) (HPC)); 68 % of control (dose: 200.0 mg/kg/injection, schedule: Q04DX003 (sc), vehicle: suspension in saline). The T/C runs as follows: (dose: 400.0 mg/kg/injection, schedule: Q04DX003 (sc), vehicle: suspension in saline) 89 % of control; (dose: 800.0 mg/kg/injection, schedule: Q04DX003 (sc), vehicle: suspension in saline) 73 % of control.
`CN1CCN(Cc2nc3cccc4c3c([n+]2[O-])-c2ccccc2-4)CC1`: the T/C is 72 % of control (dose: 12.5 mg/kg/injection, schedule: Q01DX010 (sc), vehicle: saline with Tween-80); 96 % of control (dose: 25.0 mg/kg/injection, schedule: Q01DX010 (sc), vehicle: saline with Tween-80); 35 % of control (dose: 400.0 mg/kg/injection, schedule: Q01DX010 (sc), vehicle: saline with Tween-80).
Take `O=C(O)c1ccc(C(=O)O)c(C(=O)O)c1.[NH-]C1CCCCC1[NH-].[Pt+2]`: the T/C runs as follows: (dose: 3.12 mg/kg/injection, schedule: Q01DX010 (sc), vehicle: sodium bicarbonate) 10 % of control and 27 % of control; (dose: 6.25 mg/kg/injection, schedule: Q01DX010 (sc), vehicle: sodium bicarbonate) 1 % of control and 2 % of control.
For `C[C@@H]1C[C@H]2[C@@H]3CCC4=CC(=O)C=C[C@]4(C)[C@@]3(F)[C@@H](O)C[C@]2(C)[C@@]1(O)C(=O)CO`, the T/C runs as follows: (dose: 3.13 mg/kg/injection, schedule: Q01DX010 (sc), vehicle: Klucel (hydroxypropylcellulose) (HPC)) 44 % of control; (dose: 6.25 mg/kg/injection, schedule: Q01DX010 (sc), vehicle: Klucel (hydroxypropylcellulose) (HPC)) 28 % of control; (dose: 12.5 mg/kg/injection, schedule: Q01DX010 (sc), vehicle: Klucel (hydroxypropylcellulose) (HPC)) 35 % of control; under setting [1], 33 % of control.
For the compound `COc1ccc(C(N)=O)cc1N=NN(C)C`, under setting [2], the T/C is 169 % of control.
With `CC12CC(C(=O)O)C3(O)CC(C)(C1)CC(C)(C2)C3` (stereo not given) (tested in a mixture with another compound), the T/C reads like this: under setting [3], 87 % of control; under setting [4], 168 % of control; under setting [5], 102 % of control.
`CC1=C(C)C(=O)O[C@@H]([C@](C)(O)[C@]2(O)CC[C@@]3(O)[C@@H]4C[C@H]5O[C@]56CC=CC(=O)[C@]6(C)[C@H]4CC[C@]23C)C1`: the T/C runs as follows: (dose: 75.0 mg/kg/injection, schedule: Q04DX003 (sc), vehicle: suspension in saline) 112 % of control; (dose: 150.0 mg/kg/injection, schedule: Q04DX003 (sc), vehicle: suspension in saline) 83 % of control; under setting [6], 83 % of control; under setting [7], 95 % of control.
With `CC[n+]1c(-c2ccccc2)c2cc(N)ccc2c2ccc(N)cc21`, the T/C by setting is: (dose: 15.0 mg/kg/injection, schedule: Q04DX003 (sc), vehicle: saline) 119 % of control; (dose: 30.0 mg/kg/injection, schedule: Q04DX003 (sc), vehicle: saline) 110 % of control; (dose: 60.0 mg/kg/injection, schedule: Q04DX003 (sc), vehicle: saline) 83 % of control.
`CO[C@H](/C(C)=C/C=C/C(C)=C/c1coc(C)n1)[C@H](C)[C@H]1C[C@@H](O)[C@@]2(C)O[C@H]2/C=C/[C@@H](C)[C@@H]2C[C@@H](CC(=O)O2)C[C@H]2O[C@@H]2C(=O)O1`: the T/C reads like this: (dose: 0.25 mg/kg/injection, schedule: Q04DX003 (ip), vehicle: Klucel (hydroxypropylcellulose) (HPC)) 34 % of control; (dose: 0.5 mg/kg/injection, schedule: Q04DX003 (ip), vehicle: Klucel (hydroxypropylcellulose) (HPC)) 2 % of control; (dose: 1.0 mg/kg/injection, schedule: Q04DX003 (ip), vehicle: Klucel (hydroxypropylcellulose) (HPC)) 3 % of control; (dose: 2.0 mg/kg/injection, schedule: Q04DX003 (ip), vehicle: Klucel (hydroxypropylcellulose) (HPC)) -26 % of control.
Consider `Cc1cc(NS(=O)(=O)c2ccc(N=Nc3cc(N=Nc4ccc(S(=O)(=O)Nc5cc(C)nc(C)n5)cc4)c4c(NC(=O)C(Cl)Cl)cccc4c3OC(=O)C(Cl)Cl)cc2)nc(C)n1` (tested in a mixture with another compound), for which the T/C under setting [8] was 112 % of control.
With `ClCC[Se](Cl)(Cl)c1ccccc1`, the T/C is 89 % of control (dose: 12.5 mg/kg/injection, schedule: Q04DX003 (sc), vehicle: saline); 109 % of control (dose: 25.0 mg/kg/injection, schedule: Q04DX003 (sc), vehicle: saline); 80 % of control (dose: 50.0 mg/kg/injection, schedule: Q04DX003 (sc), vehicle: saline); 59 % of control (dose: 100.0 mg/kg/injection, schedule: Q04DX003 (sc), vehicle: saline).
With `O=C1NC(O)c2ccccc2O1` (stereo not given), the T/C under setting [6] was 25 % of control; the T/C under setting [7] is 30 % of control; the T/C (dose: 1200.0 mg/kg/injection, schedule: Q04DX003 (sc), vehicle: suspension in saline) is 26 % of control; the T/C under setting [8] is 29 % of control.
Turning to `C[CH2][Sn]([CH2]C)([O]S(C)(=O)=O)[O]S(C)(=O)=O`, the T/C by setting is: (dose: 6.25 mg/kg/injection, schedule: Q04DX003 (sc), vehicle: saline with Tween-80) 83 % of control; (dose: 12.5 mg/kg/injection, schedule: Q04DX003 (sc), vehicle: saline with Tween-80) 95 % of control; (dose: 25.0 mg/kg/injection, schedule: Q04DX003 (sc), vehicle: saline with Tween-80) 95 % of control.
For the compound `N[C@@H](Cc1c[nH]c2ccccc12)C(=O)Nc1nncs1`, the T/C was 69 % of control (dose: 300.0 mg/kg/injection, schedule: Q04DX003 (ip), vehicle: suspension in saline) and 50 % of control (dose: 600.0 mg/kg/injection, schedule: Q04DX003 (ip), vehicle: suspension in saline).
For `C=C1C(=O)C2=CC1CCC(=O)C1(C)CCC(OC(C)=O)C(C)(C)C1CC2O` (stereo not given), the T/C (dose: 30.0 mg/kg/injection, schedule: Q04DX003 (sc), vehicle: Klucel (hydroxypropylcellulose) (HPC)) was 107 % of control; the T/C (dose: 60.0 mg/kg/injection, schedule: Q04DX003 (sc), vehicle: Klucel (hydroxypropylcellulose) (HPC)) is 69 % of control; the T/C (dose: 120.0 mg/kg/injection, schedule: Q04DX003 (sc), vehicle: Klucel (hydroxypropylcellulose) (HPC)) was 42 % of control.
As to `O=c1ssc(=Nc2ccccc2)n1-c1ccccc1`, the T/C under setting [3] is 65 % of control; the T/C under setting [4] is 95 % of control; the T/C under setting [5] is 112 % of control; the T/C (dose: 2400.0 mg/kg/injection, schedule: Q04DX003 (sc), vehicle: Klucel (hydroxypropylcellulose) (HPC)) is 106 % of control.
